These results are taken from US20230310634A1, “ANTI-HUMAN VISTA ANTIBODIES AND USE THEREOF” (IMMUNEXT, INC., priority 2020, published 2023).

The subject of data set [1] is FKBP5. The data set can be described thus: FKBP5 transcription in peritoneal resident macrophages and spleen monocytes after in vivo treatment. Also noted: species or system mice. The following applies: from other studies (previous example). The procedure:
ADCs were then injected from 17 h to 7 days before mouse euthanasia and cell isolation.
After euthanasia, mice were injected in the peritoneal cavity with 7 ml of PBS/0.5% BSA/2 mM EDTA. After a brief massage of the peritoneum, a small incision was performed and the peritoneal lavage collected. PRM were isolated using negative selection (Miltenyi kit, ref 130-110-434). Spleen were dissected and dissociated mechanically; monocytes were isolated using […] (Stem Cell, EasySep™ Mouse CD11 b Positive Selection Kit II).
Cell pellets from different tissues were resuspended in 0.4 ml RNeasy lysis buffer from RNeasy Plus Mini kit (Qiagen, PN: 74136) and homogenize with 20G needle for 5 times. RNA was isolated following manufacturer's instructions and RNA eluted in […] H2O (RNase/DNase free). RNA concentration was assessed on Nanodrop.
Reverse transcription was done using Taqman reverse transcription reagents (#N8080234) and following manufacturer's instructions. Quantitative Real-Time PCR was done using Taqman master mix 2× kit (#4369016) and Taqman primers for mouse FKBP5 (Mm00487401_m1), and mouse HPRT as housekeeping gene (Mm446968_m1) and run on a QuantStudio3 from Applied Biosystem. […]

Data set [2] in a line: Plasma corticosterone levels after repeated treatment. In kind it is in vivo, mice. The conditions noted are these: bleed on day 5. The procedure: Based on the foregoing we assessed the impact of long-term treatment with an exemplary antibody drug conjugate (ADC) INX201J, and an anti-human VISTA monoclonal antibody linked to a glucocorticoid (GC) payload, on the HPA axis, specifically the corticosterone basal levels. […] The experiment was performed in female mice that were first acclimated for a week to a specific handler that would carry subsequently all injections and bleed to limit stress-induced changes in basal level of GC.
On day 5, mice were bled and their corticosterone levels assessed by ELISA.
The experiment was performed in female hVISTA KI mice. […] A control group was included that received daily PBS injections. On day 5, mice were bled and their plasma corticosterone levels assessed by ELISA.
The ELISA was conducted following the manufacturer's included protocol using Arbor Assays (cat #K014-H5) Corticosterone 5 pack ELISA Kit.

Data set [3] concerns FKBP5. The data set can be described thus: FKBP5 transcriptional activation in isolated human Tregs (qRT-PCR). The class given is cell-based. The following applies: Experiment 3; 20 nM payload or molar equivalent; 2 donors. An excerpt: (§1) To monitor/confirm GC delivery and activity, we measured by quantitative Real Time PCR (qRT-PCR) the transcriptional activation of FKBP5 that is a direct and robust biomarker of glucocorticoid activity (JCEM 101: 4305-4312, 2016). We conducted this assessment on isolated human monocytes, regulatory T cells (T regs) and B cells following in vitro treatment with ADCs.
For monocytes vs B cell analyses, one blood donor collection was used for the single drug concentration experiment; blood from a separate single donor collection was used to assess drug dose response. For the regulatory T cell (Treg) analysis, blood from two separate donors was used.
(§2) The various immune populations were isolated using different cell isolation kits and following manufacturer instructions: • EasySep Human monocyte enrichment kit without CD16 depletion (StemCell cat #19058) • Pan B cell isolation kit, human (Miltenyi Biotec, 130-101-638) • EasySep™ Human CD4^+ CD127 low CD49d− regulatory T cell enrichment Kit (StemCell cat #19232) […]
(§3) After one wash with PBS, RNA was isolated from cell pellets using either the RNeasy Plus Mini kit (Qiagen, PN: 74136) or NucleoSpin RNA Plus (Macherey-Nagel #740984.250). […] RNA concentration was assessed by UV spectroscopy using a Nanodrop 2000. […]
(§4) Quantitative Real-Time PCR was done using Taqman master mix 2× kit (#4369016) and run on a QuantStudio3 from Applied Biosystem. […]
In general terms: In qPCR the cycle at which signal appears reflects the starting amount.

Data set [4] has as its system LPS stimulated human PBMCs. The data set can be described thus: In vitro potency of steroid payloads in LPS stimulated human PBMCs (IL-1β, IL-6 ELISA). The class given is cell-based. On the technique in general: An ELISA detects its analyte on a solid surface through an enzyme-linked reagent.
Data set [5] deals with LPS-induced cytokine release. Kind of data set: LPS-induced systemic inflammation, plasma cytokines post LPS. More on the design: species or system mice. The conditions noted are these: mouse, in vivo. As to the method:
In order to evaluate the ADC potential efficacy in auto-immune diseases, we used the short-term model of LPS-induced systemic inflammation. Intraperitoneal (i.p.) injection of lipopolysaccharide (LPS) is widely used as a model for acute immune response—both local and systemic—in mice.
Blood was collected at 2 or 4 h post LPS i.p. injection, and plasma isolated for cytokine analyses.
Mice were dosed at 0.5 mg/Kg.
For ADC-INVIVO-30 and 35, the Immune Monitoring Lab (IML, Shared Resources at Dartmouth-Hitchcock Norris Cotton Cancer Center) performed the analyses.
ELISAs were conducted following the manufacturer's included protocol.
Cytokine data are censored when below a […] threshold for IL-12p40 and/or […] threshold for TNF-α as it indicates a failed LPS injection.

In data set [6] the test system is peritoneal resident macrophages. The data set can be described thus: In vivo treatment / ex vivo activation of peritoneal resident macrophages (TNFα, IL-6). Also noted: species or system mice. The following applies: Experiment 9, 0.2 mg/Kg of GC payload, day −7, supernatants at 24 h.
For data set [7] the following is noted: mouse, in vivo; cited from earlier work.
In data set [8] the test system is FKBP5. The data set can be described thus: FKBP5 transcriptional activation in isolated human monocytes (qRT-PCR). In kind it is cell-based. The following applies: Experiment 1; 20 nM payload or molar equivalent; 1 day; relative to no-treatment control.
Source text: as §1
(§5) Monocytes or B cells were isolated from healthy donor blood samples and treated with free steroid, anti-VISTA conjugated steroid, or conjugated isotype control. RNA was isolated, and change in FKBP5 transcript level assessed by qPCR.
as §2, §3, §4

Data set [9] relates to FKBP5. The data set can be described thus: FKBP5 transcriptional activation in isolated human B cells (qRT-PCR). In kind it is cell-based. The following applies: Experiment 1; 20 nM payload or molar equivalent; 1 day; relative to no-treatment control.
Source text: as §1, §5, §2, §3, §4

Entries after “also recorded” stand apart in the source; their conditions may differ.

As for `C[C@@H]1C[C@H]2[C@@H]3CCC4=CC(=O)C=C[C@]4(C)[C@@]3(F)[C@@H](O)C[C@]2(C)[C@@]1(O)C(=O)CO` [Dex, Dexamethasone], in data set [1], the pharmacodynamic range was less than 24 h. The “basal plasma corticosterone levels” value in [2] (Dex 0.2 mg/Kg daily for 4 days) is given as “limited though significant impact”; in data set [2] (Dex 2 mg/Kg daily for 4 days), “dramatically decreased”.

On to `C[C@]12C=CC(=O)C=C1CC[C@@H]1[C@@H]2[C@@H](O)C[C@@]2(C)[C@H]1C[C@H]1O[C@@H](c3ccc(CC45CC(N)(C4)C5)cc3)O[C@]12C(=O)CO` [INX-SM-3, (6aR,6bS,7S,8aS,8bS,10R,11aR,12aS,12bS)-10-(4-((3-aminobicyclo[1.1.1]pentan-1-yl)methyl)phenyl)-7-hydroxy-8b-(2-hydroxyacetyl)-6a,8a-dimethyl-1,2,6a,6b,7,8,8a,8b,11a,12,12a,12b-dodecahydro-4H-naphtho[2′,1′:4,5]indeno[1,2-d][1,3]dioxol-4-one], for which the “FKBP5 transcription in Tregs” value in data set [3] was “increased FKBP5 transcription”. In addition, in data set [4], the “steroid potency as free payloads in LPS-activated human PBMCS (conclusions)” value is “varying degrees of dose dependent steroid potency”. The “potency relative to the other compounds of the experiment” value in data set [4] (1 ng/mL LPS, 24 hr) was “most potent compound among these three; also recorded: most potent compound among these compounds tested”. Moreover, the “IL-1β and IL-6 production” value in data set [4] (Experiment 1, 1000-1 nM, 1 ng/mL LPS, 24 hr, n=1 donor) was “inhibit both IL-1β and IL-6 production”. In addition, the IL-1β production entry in data set [4] (Experiment 2, 1000-1 nM, 1 ng/mL LPS, 24 hr, n=1 donor) is recorded as “show inhibition in IL-1β production”.

As to `C[C@]12C=CC(=O)C=C1CC[C@@H]1[C@@H]2[C@@H](O)C[C@@]2(C)[C@H]1C[C@H]1O[C@@H](c3ccc(CC45CC(NC(=O)[C@H](CCCCN)NC(=O)CNC(=O)CBr)(C4)C5)cc3)O[C@]12C(=O)CO` [INX W, (S)-6-amino-2-(2-(2-bromoacetamido)acetamido)-N-(3-(4-((6aR,6bS,7S,8aS,8bS,10R,11aR,12aS,12bS)-7-hydroxy-8b-(2-hydroxyacetyl)-6a,8a-dimethyl-4-oxo-2,4,6a,6b,7,8,8a,8b,11a,12,12a,12b-dodecahydro-1H-naphtho[2′,1′:4,5]indeno[1,2-d][1,3]dioxol-10-yl)benzyl)bicycle [1.1.1]pentan-1-yl)hexanamide], in [5], the “potency of conjugated linker/payload in the short term LPS activation model (conclusions)” value is reported as “efficacious”. Besides, the “long term potency in controlling PRM cytokine responses (TNFα, IL-6)” value (“long term potency” below) in [6] was “remarkable long term potency; also recorded: increased potency relative to INX P and INX R”.

With `C[C@]12C=CC(=O)C=C1CC[C@@H]1[C@@H]2[C@@H](O)C[C@@]2(C)[C@H]1C[C@H]1O[C@@H](C34CC(Cc5cccc(NC(=O)[C@H](CCC(=O)O)NC(=O)CNC(=O)CBr)c5)(C3)C4)O[C@]12C(=O)CO` [INX O, (S)-4-(2-(2-bromoacetamido)acetamido)-5-((3-((3-((6aR,6bS,7S,8aS,8bS,10R,11aR,12aS,12bS)-7-hydroxy-8b-(2-hydroxyacetyl)-6a,8a-dimethyl-4-oxo-2,4,6a,6b,7,8,8a,8b,11a,12,12a,12b-dodecahydro-1H-naphtho[2′,1′:4,5]indeno[1,2-d][1,3]dioxol-10-yl)bicyclo[1.1.1]pentan-1-yl)methyl)phenyl)amino)-5-oxopentanoic acid], in data set [5], the “potency of conjugated linker/payload in the short term LPS activation model (conclusions)” value was “reduced potency”. Besides, the “long term potency” value in [6] was “little and non-significant impact; also recorded: very limited potency”.

On to `C[C@@H]1C[C@H]2[C@@H]3CCC4=CC(=O)C=C[C@]4(C)[C@@]3(F)[C@@H](O)C[C@]2(C)[C@@]1(O)C(=O)CO` [dexamethasone], for which, in data set [7], the “toxicity in this IBD model (literature)” value is “causes toxicity in this IBD model”.

Take `C[C@]12C=CC(=O)C=C1CC[C@@H]1[C@@H]2[C@@H](O)C[C@@]2(C)[C@H]1C[C@H]1O[C@@H](c3ccc(CC4CC5(C4)CC(NC(=O)[C@H](CCC(=O)O)NC(=O)CNC(=O)CBr)C5)cc3)O[C@]12C(=O)CO` (stereo partly drawn) [INX V, (S)-4-(2-(2-bromoacetamido)acetamido)-5-((6-(4-((6aR,6bS,7S,8aS,8bS,10R,11 aR,12aS,12bS)-7-hydroxy-8b-(2-hydroxyacetyl)-6a,8a-dimethyl-4-oxo-2,4,6a,6b,7,8,8a,8b,11a,12,12a,12b-dodecahydro-1H-naphtho[2′,1′:4,5]indeno[1,2-d][1,3]dioxol-10-yl)benzyl)spiro[3.3]heptan-2-yl)amino)-5-oxopentanoic acid]: the “long term potency” value in [6] is on record as “remarkable long term potency”.

In the case of `C[C@]12C=CC(=O)C=C1CC[C@@H]1[C@@H]2[C@@H](O)C[C@@]2(C)[C@H]1C[C@H]1O[C@@H](c3ccc(Cc4cccc(N)c4)cc3)O[C@]12C(=O)CO` [free J payload], the “FKBP5 transcription in monocytes” value in data set [8] was “robust increase in FKBP5 transcription”. In addition, the “FKBP5 transcription in B cells” value in data set [9] is given as “robust increase in FKBP5 transcription”.
